What all share (type): functional
Test [1] has as its system Schistocerca gregaria. Description: Tested for dose dependent release of inositol phosphate (InsP3) at 10 nM.
The test system of test [2] is Schistocerca gregaria. The experiment in a line: Tested for dose dependent release of inositol phosphate (InsP4) at 0.5 uM.
Test [3] relates to Schistocerca gregaria. The experiment in a line: Tested for dose dependent release of inositol phosphate (InsP4) at 10 nM.
In test [4] the test system is Schistocerca gregaria. The experiment in a line: Tested for dose dependent release of inositol phosphate (InsP3) at 0.5 uM.
The test system of test [5] is Schistocerca gregaria. Description: Tested for dose dependent release of inositol phosphate (InsP4) at 1 uM.
The subject of test [6] is Schistocerca gregaria. Description: Tested for dose dependent release of inositol phosphate (InsP3) at 1 uM.
Test [7] concerns Schistocerca gregaria. Description: Tested for dose dependent release of inositol phosphate (InsP4) at 1 uM in the presence of compound 1 (0.5 uM).
Test [8] concerns Schistocerca gregaria. The experiment in a line: Tested for dose dependent release of inositol phosphate (InsP3) at 1 uM in the presence of compound 1 (0.5 uM).

Where a SMILES comes first, the peptide text is derived from it.

As for H-RYLPT-OH, the “Increase in DPM” value in the test with Schistocerca gregaria [1] was 1250 (mg of protein)-1; in the test with Schistocerca gregaria [2], 1600 (mg of protein)-1; in the test on Schistocerca gregaria [3] it was 1100 (mg of protein)-1; in the test on Schistocerca gregaria [4], 3400 (mg of protein)-1.
As to `CC(C)C[C@@H]1NC(=O)[C@H](Cc2ccc(O)cc2)NC(=O)[C@H](CCCN=C(N)N)NC(=O)[C@H]([C@@H](C)O)NC(=O)[C@@H]2CCCN2C1=O` (HELM PEPTIDE1{L.P.T.R.Y}$PEPTIDE1,PEPTIDE1,1:R1-5:R2$$$V2.0), the “Increase in DPM” value with Schistocerca gregaria [1] is 1200 (mg of protein)-1; in the test with Schistocerca gregaria [5], 300 (mg of protein)-1; with Schistocerca gregaria [3] it was 750 (mg of protein)-1; in the test on Schistocerca gregaria [6] it was 500 (mg of protein)-1.
As for `CC(C)C[C@H](NC(=O)[C@H](Cc1ccc(O)cc1)N(C)C(=O)[C@@H](N)CCCN=C(N)N)C(=O)N1CCC[C@H]1C(=O)N[C@H](C(=O)O)[C@@H](C)O` (HELM PEPTIDE1{R.[meY].L.P.T}$$$$V2.0), the “Increase in DPM” value with Schistocerca gregaria [7] is given as 1500 (mg of protein)-1; in the test with Schistocerca gregaria [8], 3600 (mg of protein)-1.
For `CC(C)C[C@@H](NC(=O)[C@@](C)(Cc1ccc(O)cc1)NC(=O)[C@@H](N)CCCN=C(N)N)C(=O)N1CCC[C@@H]1C(=O)N[C@H](C(=O)O)[C@H](C)O`, the “Increase in DPM” value with Schistocerca gregaria [1] was 500 (mg of protein)-1; in the test on Schistocerca gregaria [5] it was 250 (mg of protein)-1; in the test on Schistocerca gregaria [3], 250 (mg of protein)-1; with Schistocerca gregaria [6], 400 (mg of protein)-1.

The record behind these values is ChEMBL document CHEMBL1128101, “Cycloproctolin and [-Methyl-l-Tyr]-proctolin are potent antagonists of proctolin-induced inositol phosphate production in locust foregut homogenates” (1995).
